Patent publication US20080307843A1, “Nitrification inhibitor and soil improver and fertilizer containing the same” (JAPAN INTERNATIONAL RESEARCH CENTER FOR AGRICULTURAL …, priority 2006, published 2008)

Key:
[1] = tested on: Nitrosomonas europaea IF014298 with luciferase gene (luxAB); experiment: in-vitro nitrification bacteria test, biological luminescence accompanying nitrification reaction; conditions: incubation at 15° C. for 30 minutes; for 80% inhibitory concentration: concentration where the nitrification inhibitory ratio became 80%
[2] = in the ordinarily used range; RTECS No. QJ5775000; cited from earlier work

Compound | 80% inhibitory concentration [1] [ppm] | 50% inhibitory concentration ([1]; concentration where the nitrification-inhibitory ratio became 50%) [ppm] | toxicity [2]
Clc1cccc(C(Cl)(Cl)Cl)n1 [Comparative Example 14, 2-chloro-6-Trichloromethylpyridine, reference compound] | 4 | – | –
N#CN=C(N)N [Comparative Example 15, dicyanodiamide, reference compound] | 185 | – | –
O=C1C=CC(=O)c2c(O)cccc21 [Example 1, 5-hydroxy-1,4-naphtoquinone] | 0.08 | 0.03 | low toxicity
